Values quoted from earlier work as cited in patent US10238670B2, “9-aminomethyl minocycline compounds and methods of use thereof in urinary tract infection (UTI) treatment” (Paratek Pharmaceuticals, Inc., priority 2016, dated 2019).
Read-outs that look alike come from different tables or passages of the source.

Tested on: human plasma protein
Settings: cited from earlier work

For `CCCCCCCCCC(=O)N[C@@H](Cc1c[nH]c2ccccc12)C(=O)N[C@H](CC(N)=O)C(=O)N[C@@H](CC(=O)O)C(=O)N[C@@H]1C(=O)NCC(=O)N[C@@H](CCCN)C(=O)N[C@@H](CC(=O)O)C(=O)N[C@H](C)C(=O)N[C@@H](CC(=O)O)C(=O)NCC(=O)N[C@H](CO)C(=O)N[C@@H]([C@H](C)CC(=O)O)C(=O)N[C@@H](CC(=O)c2ccccc2N)C(=O)O[C@@H]1C` [Daptomycin], the “protein bound in human plasma” value is listed as > 75%.

For `CC(=O)NC[C@H]1CN(c2ccc(N3CCOCC3)c(F)c2)C(=O)O1` [Linezolid], the “protein bound in human plasma” value (human, plasma) is listed as 31%.
